Results published in paper PMC6979384, “Characterization of the plant homeodomain (PHD) reader family for their histone tail interactions” (Epigenetics & Chromatin, 2020).

Columns and labels:
Assay in all cases: Histone peptide microarray
Type in all cases: binding, human
AIRE (PP) = conditions: AIRE (PP)
How it was run: (§1)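 Binding of recombinant GST-fused PHD readers (0.5 μM) is detected on an array of 293 histone peptides, modified singly or in combination. An optimized array protocol is followed, and each intensity is the average of quadruplicate measurements with standard deviation.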

BAZ2B = conditions: BAZ2B
How it was run: as §1

BPTF (PB) = conditions: BPTF (PB)
How it was run: as §1

CHD4 (PPCC) = conditions: CHD4 (PPCC)
How it was run: as §1

CHD5 (PCC) = conditions: CHD5 (PCC)
How it was run: as §1

CHD5 (PPCC) = conditions: CHD5 (PPCC)
How it was run: as §1

DIDO1 = system: DIDO1
How it was run: as §1

DPF2 (PPC2W2) = conditions: DPF2 (PPC2W2)
How it was run: as §1

ING1 = system: ING1
How it was run: as §1

ING2 = system: ING2
How it was run: as §1

ING3 = system: ING3
How it was run: as §1

ING4 = system: ING4
How it was run: as §1

ING5 = system: ING5
How it was run: as §1

KDM4C (TTP) = conditions: KDM4C (TTP)
How it was run: as §1

KDM5A (1) = conditions: KDM5A (1)
How it was run: as §1

KDM5A (3) = conditions: KDM5A (3)
How it was run: as §1

KDM5B (1) = conditions: KDM5B (1)
How it was run: as §1

KDM5B (3) = conditions: KDM5B (3)
How it was run: as §1

KDM7A = conditions: KDM7A
How it was run: as §1

MLL5 = system: MLL5
How it was run: as §1

MORC3 (CW) = conditions: MORC3 (CW)
How it was run: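 Steps: express and purify GST-tagged PHD reader; incubate 0.5 μM protein on a peptide microarray (293 histone peptides, single or combined PTMs) following an optimized protocol; average signal across 4 replicates.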

PHF13 = system: PHF13
How it was run: as §1

PHF21A = conditions: PHF21A
How it was run: as §1

PHF23 = system: PHF23
How it was run: as §1

PHF2 = system: PHF2
How it was run: as §1

PHF8 = system: PHF8
How it was run: as §1

PHRF1 (RP) = conditions: PHRF1 (RP)
How it was run: as §1

RAG2 = system: RAG2
How it was run: as §1

SP140L = conditions: SP140L
How it was run: as §1

TAF3 = system: TAF3
How it was run: as §1

TRIM66 (PB) = conditions: TRIM66 (PB)
How it was run: as §1

[1] = GST-tagged, arrays performed twice, n of 4
[2] = sheet "Array Heatmap", each array performed twice, total n = 4

H4K5ac + K8ac: H4 1-23
Array Heatmap value (peptide array binding signal) (AIRE (PP); [1]): 0.5662 | Array Heatmap value (peptide array binding signal) (BAZ2B; [1]): 0.4714 | Array Heatmap value (peptide array binding signal) (BPTF (PB); [1]): 0.3517 | Array Heatmap value (peptide array binding signal) (CHD4 (PPCC); [1]): 0.551 | Array Heatmap value (peptide array binding signal) (CHD5 (PCC); [1]): 0.8034 | Array Heatmap value (peptide array binding signal) (CHD5 (PPCC); [1]): 0.5854 | Array Heatmap value (peptide array binding signal) (DIDO1; DIDO1, GST-tagged, arrays performed twice, n of 4): 0.6312 | Array Heatmap value (peptide array binding signal) (DPF2 (PPC2W2); [1]): 0.6807 | Array Heatmap value (peptide array binding signal) (ING1; ING1, GST-tagged, arrays performed twice, n of 4): 0.5183 | Array Heatmap value (peptide array binding signal) (ING2; ING2, GST-tagged, arrays performed twice, n of 4): 0.5873 | Array Heatmap value (peptide array binding signal) (ING3; ING3, GST-tagged, arrays performed twice, n of 4): 0.4856 | Array Heatmap value (peptide array binding signal) (ING4; ING4, GST-tagged, arrays performed twice, n of 4): 0.4756 | Array Heatmap value (peptide array binding signal) (ING5; ING5, GST-tagged, arrays performed twice, n of 4): 0.3695 | Array Heatmap value (peptide array binding signal) (KDM4C (TTP); [1]): 0.5523 | Array Heatmap value (peptide array binding signal) (KDM5A (1); [1]): 0.4957 | Array Heatmap value (peptide array binding signal) (KDM5A (3); [1]): 0.4472 | Array Heatmap value (peptide array binding signal) (KDM5B (1); [1]): 0.6318 | Array Heatmap value (peptide array binding signal) (KDM5B (3); [1]): 0.5165 | Array Heatmap value (peptide array binding signal) (KDM7A; [1]): 0.4235 | Array Heatmap value (peptide array binding signal) (MLL5; MLL5, GST-tagged, arrays performed twice, n of 4): 0.528 | Array Heatmap value (peptide array binding signal) (MORC3 (CW); [1]): 0.3673 | Array Heatmap value (peptide array binding signal) (PHF13; PHF13, GST-tagged, arrays performed twice, n of 4): 0.6182 | Array Heatmap value (peptide array binding signal) (PHF21A; [1]): 0.4994 | Array Heatmap value (peptide array binding signal) (PHF23; PHF23, GST-tagged, arrays performed twice, n of 4): 0.5198 | Array Heatmap value (peptide array binding signal) (PHF2; PHF2, GST-tagged, arrays performed twice, n of 4): 0.4759 | Array Heatmap value (peptide array binding signal) (PHF8; PHF8, GST-tagged, arrays performed twice, n of 4): 0.3992 | Array Heatmap value (peptide array binding signal) (PHRF1 (RP); [1]): 0.424 | Array Heatmap value (peptide array binding signal) (RAG2; RAG2, GST-tagged, arrays performed twice, n of 4): 0.2557 | Array Heatmap value (peptide array binding signal) (SP140L; [1]): 0.3819 | Array Heatmap value (peptide array binding signal) (TAF3; TAF3, GST-tagged, arrays performed twice, n of 4): 0.2841 | Array Heatmap value (peptide array binding signal) (TRIM66 (PB); [1]): 0.5724

H4K5ac + K8me1 + K12ac + K16ac: H4 1-23
Array Heatmap value (peptide array signal) (AIRE (PP); [2]): 0.5672 | Array Heatmap value (peptide array signal) (BAZ2B; [2]): 0.5032 | Array Heatmap value (peptide array signal) (BPTF (PB); [2]): 0.382 | Array Heatmap value (peptide array signal) (CHD4 (PPCC); [2]): 0.5762 | Array Heatmap value (peptide array signal) (CHD5 (PCC); [2]): 0.8607 | Array Heatmap value (peptide array signal) (CHD5 (PPCC); [2]): 0.5973 | Array Heatmap value (peptide array signal) (DIDO1; DIDO1, sheet "Array Heatmap", each array performed twice, total n = 4): 0.7292 | Array Heatmap value (peptide array signal) (DPF2 (PPC2W2); [2]): 0.6672 | Array Heatmap value (peptide array signal) (ING1; ING1, sheet "Array Heatmap", each array performed twice, total n = 4): 0.5458 | Array Heatmap value (peptide array signal) (ING2; ING2, sheet "Array Heatmap", each array performed twice, total n = 4): 0.602 | Array Heatmap value (peptide array signal) (ING3; ING3, sheet "Array Heatmap", each array performed twice, total n = 4): 0.4952 | Array Heatmap value (peptide array signal) (ING4; ING4, sheet "Array Heatmap", each array performed twice, total n = 4): 0.5013 | Array Heatmap value (peptide array signal) (ING5; ING5, sheet "Array Heatmap", each array performed twice, total n = 4): 0.3988 | Array Heatmap value (peptide array signal) (KDM4C (TTP); [2]): 0.5456 | Array Heatmap value (peptide array signal) (KDM5A (1); [2]): 0.5072 | Array Heatmap value (peptide array signal) (KDM5A (3); [2]): 0.4998 | Array Heatmap value (peptide array signal) (KDM5B (1); [2]): 0.7009 | Array Heatmap value (peptide array signal) (KDM5B (3); [2]): 0.4848 | Array Heatmap value (peptide array signal) (KDM7A; [2]): 0.4269 | Array Heatmap value (peptide array signal) (MLL5; MLL5, sheet "Array Heatmap", each array performed twice, total n = 4): 0.5641 | Array Heatmap value (peptide array signal) (MORC3 (CW); [2]): 0.4169 | Array Heatmap value (peptide array signal) (PHF13; PHF13, sheet "Array Heatmap", each array performed twice, total n = 4): 0.643 | Array Heatmap value (peptide array signal) (PHF21A; [2]): 0.4984 | Array Heatmap value (peptide array signal) (PHF23; PHF23, sheet "Array Heatmap", each array performed twice, total n = 4): 0.5588 | Array Heatmap value (peptide array signal) (PHF2; PHF2, sheet "Array Heatmap", each array performed twice, total n = 4): 0.5076 | Array Heatmap value (peptide array signal) (PHF8; PHF8, sheet "Array Heatmap", each array performed twice, total n = 4): 0.4058 | Array Heatmap value (peptide array signal) (PHRF1 (RP); [2]): 0.4565 | Array Heatmap value (peptide array signal) (RAG2; RAG2, sheet "Array Heatmap", each array performed twice, total n = 4): 0.2535 | Array Heatmap value (peptide array signal) (SP140L; [2]): 0.3759 | Array Heatmap value (peptide array signal) (TAF3; TAF3, sheet "Array Heatmap", each array performed twice, total n = 4): 0.2847 | Array Heatmap value (peptide array signal) (TRIM66 (PB); [2]): 0.6845
